Measured values from ChEMBL document CHEMBL5543121, “Drug Repurposing of ACT001 to Discover Novel Promising Sulfide Prodrugs with Improved Safety and Potent Activity for Neutrophil-Mediated Antifungal Immunotherapy” (J Med Chem, 2024).
Activity calls are given as the source filed them. The calls are words filed in the database; no cut-off is given here.

Assays:
[1] = Acute toxicity in C57BL/6 mouse assessed as effect on AST level in serum at 500 mg/kg, po administered as single dose and measured every day for 14 days; assay type: organism-based; details: in vivo, 336 h, time 14 day
[2] = Acute toxicity in C57BL/6 mouse assessed as change in lung weight at 500 mg/kg, po administered as single dose and measured after 14 days; assay type: organism-based; details: in vivo, 336 h, time 14 day
[3] = target: Signal transducer and activator of transcription 3 (Mus musculus) (UniProt P42227); experiment: Inhibition of biotinylated ACT001 probe binding to STAT3 in mouse bone marrow neutrophils at 100 uM by pulldown based Western blot analysis; assay type: cell-based; details: Neutrophil
Signal transducer and activator of transcription 3 (Mus musculus), sequence (P42227 whole entry): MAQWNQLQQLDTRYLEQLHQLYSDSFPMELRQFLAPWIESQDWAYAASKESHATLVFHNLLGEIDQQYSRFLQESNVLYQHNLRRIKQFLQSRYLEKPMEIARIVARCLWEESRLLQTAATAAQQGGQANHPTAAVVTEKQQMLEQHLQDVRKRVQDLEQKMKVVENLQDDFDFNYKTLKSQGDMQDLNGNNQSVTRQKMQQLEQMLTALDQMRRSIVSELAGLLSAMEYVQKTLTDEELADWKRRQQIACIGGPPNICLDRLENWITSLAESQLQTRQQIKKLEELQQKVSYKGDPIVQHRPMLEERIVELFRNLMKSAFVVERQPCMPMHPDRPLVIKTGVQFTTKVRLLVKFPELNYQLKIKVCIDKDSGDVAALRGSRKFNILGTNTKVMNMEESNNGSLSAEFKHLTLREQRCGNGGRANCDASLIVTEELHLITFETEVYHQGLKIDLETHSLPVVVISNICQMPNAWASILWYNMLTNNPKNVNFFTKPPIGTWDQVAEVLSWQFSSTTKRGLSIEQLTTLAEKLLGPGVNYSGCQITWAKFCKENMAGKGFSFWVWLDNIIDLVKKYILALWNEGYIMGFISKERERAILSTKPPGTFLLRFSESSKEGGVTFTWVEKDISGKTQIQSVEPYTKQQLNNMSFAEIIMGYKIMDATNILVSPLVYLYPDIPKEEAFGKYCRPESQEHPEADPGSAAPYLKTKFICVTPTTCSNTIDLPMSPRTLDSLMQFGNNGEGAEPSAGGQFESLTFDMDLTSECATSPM

[4] = Acute toxicity in C57BL/6 mouse assessed as signs of morbidity at 500 mg/kg, po administered as single dose and measured every day for 14 days; assay type: organism-based; details: in vivo, 336 h, time 14 day
[5] = Cytotoxicity against mouse neutrophils assessed as cell viability at 40 uM relative to control; assay type: toxicity, cell-based, Neutrophil; details: mouse neutrophils, read-out: Activity
[6] = Subacute toxicity in C57BL/6 mouse assessed as animal death at 100 mg/kg, po administered daily for 14 days and measured every day; assay type: organism-based; details: in vivo, 336 h, time 14 day
[7] = system: Candida albicans; experiment: Antifungal activity against Candida albicans SC5314 assessed as inhibition of fungal growth at 0.25 to 128 ug/ml measured every 3 hrs for 24 hrs by absorbance based analysis; assay type: functional, organism-based; details: dose 0.25-128 µg/ml
[8] = Acute toxicity in C57BL/6 mouse assessed as change in spleen weight at 500 mg/kg, po administered as single dose and measured after 14 days; assay type: organism-based; details: in vivo, 336 h, time 14 day
[9] = system: Neutrophil; experiment: Effect on STAT3 protein level in curdlan induced mouse bone marrow neutrophils at 40 uM measured upto 60 mins by Western blot analysis; assay type: functional, cell-based
[10] = Acute toxicity in C57BL/6 mouse assessed as histopathological changes in kidney at 500 mg/kg, po administered as single dose and measured after 14 days; assay type: organism-based; details: in vivo, 336 h, time 14 day
[11] = system: Candida albicans; experiment: Induction of neutrophil-mediated antifungal immunity against Candida albicans SC5314 infected in mouse assessed as inhibition of CXCL2 protein expression in bone marrow at 50 to 100 mg/kg, po administered once a day for 3 days by ELISA; assay type: functional, organism-based; details: dose 50-100 mg/kg, time 3.0 day
[12] = Acute toxicity in C57BL/6 mouse assessed as effect on creatinine level in serum at 500 mg/kg, po administered as single dose and measured every day for 14 days; assay type: organism-based; details: in vivo, 336 h, time 14 day
[13] = AUC (0 to infinity) in male Sprague-Dawley rat at 10 mg/kg, po by LC-MS/MS analysis; assay type: ADME, organism-based; details: in vivo
[14] = Acute toxicity in C57BL/6 mouse assessed as change in kidney weight at 500 mg/kg, po administered as single dose and measured after 14 days; assay type: organism-based; details: in vivo, 336 h, time 14 day
[15] = Acute toxicity in C57BL/6 mouse assessed as histopathological changes in heart at 500 mg/kg, po administered as single dose and measured after 14 days; assay type: organism-based; details: in vivo, 336 h, time 14 day
[16] = Cmax in male Sprague-Dawley rat at 10 mg/kg, po by LC-MS/MS analysis; assay type: ADME, organism-based; details: in vivo
[17] = MRT (0 to t) in male Sprague-Dawley rat at 10 mg/kg, po by LC-MS/MS analysis; assay type: ADME, organism-based; details: in vivo
[18] = Subacute toxicity in C57BL/6 mouse assessed as change in kidney weight at 100 mg/kg, po administered daily for 14 days; assay type: organism-based; details: in vivo, 336 h, time 14 day
[19] = system: Neutrophil; experiment: Induction of apoptosis in mouse neutrophils assessed as late apoptotic cells at 40 uM incubated for 16 hrs by Annexin V-FITC/PI staining based flow cytometry analysis (reference value: 24.4%); assay type: toxicity, cell-based
[20] = Half life in male Sprague-Dawley rat at 2 mg/kg, iv by LC-MS/MS analysis; assay type: ADME, organism-based; details: in vivo
[21] = Acute toxicity in C57BL/6 mouse assessed as effect on ALT level in serum at 500 mg/kg, po administered as single dose and measured every day for 14 days; assay type: organism-based; details: in vivo, 336 h, time 14 day
[22] = Acute toxicity in C57BL/6 mouse assessed as effect on urea level in serum at 500 mg/kg, po administered as single dose and measured every day for 14 days; assay type: organism-based; details: in vivo, 336 h, time 14 day
[23] = Acute toxicity in C57BL/6 mouse assessed as histopathological changes in lung at 500 mg/kg, po administered as single dose and measured after 14 days; assay type: organism-based; details: in vivo, 336 h, time 14 day
[24] = Permeability of compound in PBS/EtOH (70:30) buffer incubated for 12 hrs by PAMPA-BBB assay; assay type: ADME; details: read-out: permeability
[25] = system: Neutrophil; experiment: Induction of apoptosis in mouse neutrophils assessed as dead cells at 20 uM incubated for 16 hrs by Annexin V-FITC/PI staining based flow cytometry analysis (reference value: 2.04%); assay type: toxicity, cell-based
[26] = Tmax in male Sprague-Dawley rat at 10 mg/kg, po by LC-MS/MS analysis; assay type: ADME, organism-based; details: in vivo
[27] = target: Signal transducer and activator of transcription 3 (Homo sapiens, UniProt P40763); experiment: Binding affinity to His-tagged human recombinant STAT3 assessed as dissociation constant by MST assay
Signal transducer and activator of transcription 3, sequence (P40763 whole entry): as the sequence (P42227 whole entry) above, with D760E counted along it

[28] = AUC (0 to t) in male Sprague-Dawley rat at 10 mg/kg, po by LC-MS/MS analysis; assay type: ADME, organism-based; details: in vivo
[29] = Acute toxicity in C57BL/6 mouse assessed as histopathological changes in liver at 500 mg/kg, po administered as single dose and measured after 14 days; assay type: organism-based; details: in vivo, 336 h, time 14 day
[30] = AUC (0 to t) in male Sprague-Dawley rat at 2 mg/kg, iv by LC-MS/MS analysis; assay type: ADME, organism-based; details: in vivo
[31] = Subacute toxicity in C57BL/6 mouse assessed as body weight loss at 100 mg/kg, po administered daily for 14 days and measured every day; assay type: organism-based; details: in vivo, 336 h, time 14 day
[32] = Induction of apoptosis in mouse neutrophils assessed as live cells at 40 uM incubated for 16 hrs by Annexin V-FITC/PI staining based flow cytometry analysis (reference value: 46.6%); assay type: toxicity, cell-based, Neutrophil; details: read-out: Activity
[33] = Acute toxicity in C57BL/6 mouse assessed as abnormal behavior at 500 mg/kg, po administered as single dose and measured every day for 14 days; assay type: organism-based; details: in vivo, 336 h, time 14 day
[34] = Subacute toxicity in C57BL/6 mouse assessed as effect on ALT level in serum at 100 mg/kg, po administered daily for 14 days and measured every day; assay type: organism-based; details: in vivo, 336 h, time 14 day
[35] = system: Candida albicans; experiment: Induction of neutrophil-mediated antifungal immunity against Candida albicans SC5314 infected in mouse assessed as increase in animal survival rate at 50 to 100 mg/kg, po administered once a day for 3 days; assay type: functional, organism-based; details: dose 50-100 mg/kg, time 3.0 day
[36] = Subacute toxicity in C57BL/6 mouse assessed as effect on AST level in serum at 100 mg/kg, po administered daily for 14 days and measured every day; assay type: organism-based; details: in vivo, 336 h, time 14 day
[37] = Clearance in male Sprague-Dawley rat at 2 mg/kg, iv by LC-MS/MS analysis; assay type: ADME, organism-based; details: in vivo
[38] = Initial plasma concentration in male Sprague-Dawley rat at 2 mg/kg, iv by LC-MS/MS analysis; assay type: ADME, organism-based
[39] = Acute toxicity in C57BL/6 mouse assessed as animal death at 500 mg/kg, po administered as single dose and measured every day for 14 days; assay type: organism-based; details: in vivo, 336 h, time 14 day

Question: Which results are given for `C[C@@]1(O)CC[C@]23O[C@@]2(C)CC[C@@H]2[C@H](OC(=O)[C@H]2CS(=O)(=O)c2c(Cl)cccc2Cl)[C@@H]13`?
Answer: Activity [1]: Non-Toxic; Activity [2]: Non-Toxic; inhibition [3]: Active; Activity [4]: Non-Toxic; viability at 40 µM [5]: 81.5%; Activity [6]: Non-Toxic; Activity [7]: inactive; Activity [8]: Non-Toxic; Activity [9]: inactive; Activity [10]: Non-Toxic; Activity [11]: Active; Activity [12]: Non-Toxic; AUC(0-inf) [13]: 182 ng·h/mL; Activity [14]: Non-Toxic; Activity [15]: Non-Toxic; Cmax [16]: 114 ng/mL; MRT last [17]: 104 min; Activity [18]: Non-Toxic; Activity [19]: 30.8%; half-life [20]: 10.2 min; Activity [21]: Non-Toxic; Activity [22]: Non-Toxic; Activity [23]: Non-Toxic; Papp at 12 h [24]: 1.22 ×10⁻⁶ cm/s; Activity [25]: 2.24%; Tmax [26]: 19.8 min; Kd [27]: 90.5 nM; AUC(0-t) [28]: 167 ng·h/mL; Activity [29]: Non-Toxic; AUC(0-t) [30]: 73.9 ng·h/mL; Activity [31]: Non-Toxic; viability at 16 h, 40 µM [32]: 38%; Activity [33]: Non-Toxic; Activity [34]: Non-Toxic; Activity [35]: Active; Activity [36]: Non-Toxic; clearance [37]: 453 mL/min/kg; C0 [38]: 191 ng/mL; Activity [39]: Non-Toxic
